Results taken from US20220233566A1, “NOVEL CARBONATE COMPOUND HAVING PYRROLOPYRIMIDINE SKELETON OR PHARMACEUTICALLY ACCEPTABLE SALT THEREOF” (TAIHO PHARMACEUTICAL CO., LTD., priority 2019, published 2022).

Assay: Presence of prodrug in mouse and absorbency (plasma AUC after oral administration)
Format: in vivo
Conditions: male, Balb/cA, mouse, 17 umol/kg, mice, 17 μmol/kg, administered compound itself in plasma, read-out: AUC0-6hr
Method: The dosage amounts of the compounds of Comparative Examples 1 to 5 and Examples 1 to 26 are those (mole/10 mL/kg) shown in Tables. Solutions for administration were prepared with an 0.5% aqueous solutions of HPMC so as to satisfy the dosage amounts.
Note that, the “amount of mole/10 mL/kg” means as follows: for example “10 mmol/10 mL/kg” means that 10 mmol of a test compound per body-weight (1 kg) of a mouse was dispersed or dissolved in a solution (10 mL) for administration. The same applies hereinafter.
The solutions for administration prepared above were orally administered to mice (Balb/cA, male) not fasted each by use of an oral administration sonde.
The mice were anesthetized with isoflurane 0.5, 1, 2, 4 and 6 hours after administration and blood was taken from the facial vein by use of a specific needle (animal lancet) and a heparin-coated hematocrit tube.
The blood sampled was immediately centrifuged (13000 rpm, 2 minutes, 4° C.) to prepare the plasma samples. After proteins were removed from the plasma samples, the concentrations of the test compound in the plasma samples were measured by LC/MS/MS.
The value of “area under the curve” (AUC) of drug concentration in blood versus time was calculated using analysis software such as Phoenix (registered trademark) WinNonlin (registered trademark).
In Table 3, “Comparative Example 1” and “Comparative Example 2” represent the “compound (Br form) of Comparative Example 1” and the “compound (I form) of Comparative Example 2”, respectively. In Table 4, “Comparative Example 6” represents the “compound (C1 form) of Comparative Example 6”.

Structure (SMILES): Nc1ncnc2c1c(Br)cn2[C@@H]1O[C@H](CO)[C@@H](O)[C@@H]1F [Comparative Example 1, (2R,3R,4S,5R)-5-(4-amino-5-bromo-7H-pyrrolo[2,3-d]pyrimidin-7-yl)-4-fluoro-2-(hydroxymethyl) tetrahydrofuran-3-ol]
- AUC(0-t): 2.07 µM·h
